Here are results for six molecules from publication PMC4601567 (Steroids, 2014).

SMILES strings stand for the structures.

This test concerns the target T1, full-length recombinant rat vitamin D receptor (VDR) (Rattus norvegicus, UniProt P13053).
T1 sequence (P13053 1-423): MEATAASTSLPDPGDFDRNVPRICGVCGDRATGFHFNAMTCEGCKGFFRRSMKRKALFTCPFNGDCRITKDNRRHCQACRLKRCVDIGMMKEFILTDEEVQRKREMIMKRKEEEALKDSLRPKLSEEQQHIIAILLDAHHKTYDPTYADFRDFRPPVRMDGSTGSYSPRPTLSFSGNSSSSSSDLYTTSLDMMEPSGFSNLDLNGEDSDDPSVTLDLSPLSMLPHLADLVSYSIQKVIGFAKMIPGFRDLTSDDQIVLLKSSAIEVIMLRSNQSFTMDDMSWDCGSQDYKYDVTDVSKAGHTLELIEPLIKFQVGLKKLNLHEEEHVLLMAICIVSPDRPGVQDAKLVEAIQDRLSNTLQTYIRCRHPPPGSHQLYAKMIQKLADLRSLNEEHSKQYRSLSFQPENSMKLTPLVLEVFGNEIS
Briefly: competitive radioligand displacement. The class given is binding. A general note: Loss of bound radioactivity is the signal in a displacement assay; it reports binding, not function.
Take `C[C@H](/C=C/[C@H](C)C(C)(C)O)[C@H]1CC[C@H]2/C(=C/C=C3C[C@@H](O)C[C@H](O)C3)CCC[C@]12C` [compound 2, 19-Nor-1α,25-dihydroxyvitaminD2 (Zemplar)]: the inhibition constant (Ki) (in general, a dissociation constant, usually derived from enzyme kinetics or from competition with a known ligand) is 0.1 nM.
To `C=C1[C@H](O)CC(=C/C=C2\CCC[C@]3(C)[C@@H]([C@H](C)/C=C/C[C@@H](C)O)CC[C@@H]23)C[C@H]1O` [8a, (20R,25R)-2-Methylene-19,26-dinor-22-(E)-ene-1α,25-dihydroxyvitamin D3] belongs 0.09 nM.
The result for `C=C1[C@H](O)CC(=C/C=C2\CCC[C@]3(C)[C@@H]([C@@H](C)/C=C/C[C@@H](C)O)CC[C@@H]23)C[C@H]1O` [9a, (20S,25R)-2-Methylene-19,26-dinor-22-(E)-ene-1α,25-dihydroxyvitamin D3] reads 0.08 nM.
On to `C=C1[C@H](O)CC(=C/C=C2\CCC[C@]3(C)[C@@H]([C@H](C)/C=C/C[C@H](C)O)CC[C@@H]23)C[C@H]1O` [8b, (20R,25S)-2-Methylene-19,26-dinor-22-(E)-ene-1α,25-dihydroxyvitamin D3], for which the Ki stood at 0.3 nM.
To `C=C1[C@H](O)CC(=C/C=C2\CCC[C@]3(C)[C@@H]([C@H](C)/C=C/CC(C)(C)O)CC[C@@H]23)C[C@H]1O` [compound 6, 2-Methylene-19-nor-22(E)-ene-1α,25-dihydroxyvitamin D3] belongs 0.06 nM; to `C=C1[C@H](O)CC(=C/C=C2\CCC[C@]3(C)[C@@H]([C@@H](C)/C=C/C[C@H](C)O)CC[C@@H]23)C[C@H]1O` [9b, (20S,25S)-2-Methylene-19,26-dinor-22-(E)-ene-1α,25-dihydroxyvitamin D3], 0.2 nM.
